In patent EP4667582A1, “FACTOR XA REAGENT” (Instrumentation Laboratory Company, priority 2024, dated 2025):
Where a name gives a salt, the structure may show the parent alone.

Assays:
Format in all cases: biochemical
factor Xa [1] = assay: factor Xa chromogenic assay with guanidine derivatives (substrate S-2732, mAbs/min at 405 nm); conditions: for factor Xa activity: Fig. 3, activity plotted against guanidine derivative or NaCl concentration, 6 nkat/mL factor Xa, 20mM Hepes pH 7.5, 37°C, 1.5mM S-2732; for factor Xa inhibition: Fig. 4, dilutions in water, 6nkat/mL factor Xa, 20mM HEPES pH 7.5, 1.5 mM S-2732, ranking between compounds
Method: In this experiment, activity of factor Xa in the presence of guanidine sulfate and its derivatives (e.g., 1-methylguanidine sulfate, 1,1-dimethylguanidine sulfate, 1,1-diethylguanidine, N-benzyl, N-methylguanidine sulfate, 1,1,3,3-tetramethylgunidine and 1,1-dimethylbiguanide HCl) was evaluated using a chromogenic assay. In the experiment, each guanidine derivative was dissolved in deionized (DI) water to a final concentration of 100mM. A number of such guanidine dilutions were prepared. Guanidine derivative levels in the solutions were tested in triplicate at 37°C as follows: 40µL (microliters) of each guanidine derivative level was incubated for 20 seconds (s) to 60s before 40µL of 6 nkat/mL factor Xa in 20mM Hepes pH 7.5 buffer was added to the reaction. After an incubation period of 150s to 180s, 100µL of 1.5mM factor Xa chromogenic substrate S-2732™ was added to the reaction and milli-absorbance per minute (mAbs/min) at 405nm (nanometers) was measured after a 20s delay.
In this experiment, the effects of guanidine sulfate and the guanidine derivatives: 1-methylguanidine sulfate, 1,1-dimethylguanidine sulfate, 1,1-diethylguanidine, and N-benzyl, N-methylguanidine sulfate were analyzed using a chromogenic assay. A number of dilutions were prepared in water with guanidine or a guanidine derivative of the type described herein. 40µL of each of the guanidine or guanidine derivatives were mixed for 20s to 60s with 40µL of 6nkat/mL factor Xa diluted in 20mM HEPES, pH 7.5 buffer. After an incubation period of 150s to 180s, 100µL of the factor Xa chromogenic substrate S-2732™ (1.5 mM) was added to each of the guanidine and factor Xa mixtures and each mixture was chromogenically measured at 405nm mAbs/min after a 20s delay.

factor Xa [2] = assay: factor Xa substrate turnover rates at a range of factor Xa levels, 1,1-dimethylguanidine compared to NaCl; conditions: Fig. 6; 22mM 1,1-dimethylguanidine compared to 33 mM NaCl; 37°C, 1.5mM S-2732
Method: Guanidine derivatives modulate factor Xa enzymatic activity in a reaction, as explained previously, thereby slowing-down the reaction. As a result, greater amounts and/or concentrations of factor Xa can be used in a reaction when a guanidine derivative is incorporated into the reaction. In this experiment, factor Xa levels were tested in a reaction in triplicate at 37°C as follows: 40µL of factor Xa was incubated for 20s to 60s before 40µL of 100mM 1,1-dimethylguanidine or 150mM NaCl in water was added to the reaction. After an incubation period of 150s to 180s, 100µL of 1.5mM factor Xa chromogenic substrate S-2732™ was added to the reaction and mAbs/min at 405 nm was measured after a 20s delay. In Fig. 6, substrate turnover rates (e.g., coloring of the substrate) in the presence of 22mM 1,1-dimethylguanidine 601 were compared to substrate turnover rates in the presence of 33 mM NaCl 602. As evident from Fig. 6, greater amounts and/or concentrations of factor Xa can be added to the reaction in the presence of 1,1-dimethylguanidine to produce the same substrate turnover rates relative to NaCl. […] Greater amounts and/or concentrations of factor Xa facilitate detection of factor Xa inhibitors or reversal of such inhibitors in an assay, as noted previously.

factor Xa [3] = assay: factor Xa chromogenic activity in plasma sample containing dimethylguanidine (9:1 sample to factor Xa ratio); conditions: Fig. 7, 50mM compared to 25mM dimethylguanidine, 1.5 mM S-2732, 37°C
Method: In this experiment, 180µL of a plasma sample containing dimethylguanidine (DMG) and 1.5 mM substrate S-2732™ were mixed with 20µL of factor Xa (a 9:1 sample to factor Xa ratio). The activity of factor Xa was determined at 37°C based on chromogenic activity of the substrate. The activity of factor Xa linearly correlates with the factor Xa concentration in the presence of dimethylguanidine. […] Thus, increasing the amount of dimethylguanidine in a sample reduces a rate of the reaction. In some implementations, dimethylguanidine can be added to a reaction at a concentration of up to about 500mM.

Compound	factor Xa activity (factor Xa [1])	factor Xa inhibition (factor Xa [1])	also measured
CNC(=N)N [1-methylguanidine sulfate]	modulates factor Xa dose-dependently	reduced factor Xa inhibition as compared to the factor Xa inhibition of mixtures containing dialkylated guanidine derivatives	–
N=C(N)N [guanidine sulfate]	modulate factor Xa dose-dependently, although less than 1-methylated guanidine sulfate	least amount of reduction in factor Xa inhibition	–
CN(C)C(=N)N.O=S(=O)(O)O [1,1-dimethylguanidine sulfate]	–	largest extent of factor Xa inhibition	–
CN(C)C(=N)NC(=N)N [1,1-dimethyl-biguanide, reference compound]	modulate factor Xa dose-dependently, although less than 1-methylated guanidine sulfate	–	–
NaCl [reference compound]	activates factor Xa activity	–	–
CCN(CC)C(=N)N.O=S(=O)(O)O [1,1-diethylguanidine sulfate]	–	largest extent of factor Xa inhibition	–
CN(Cc1ccccc1)C(=N)N.O=S(=O)(O)O [N-benzyl N-methylguanidine sulfate]	–	reduced factor Xa inhibition as compared to the factor Xa inhibition of mixtures containing dialkylated guanidine derivatives	–
CN(C)C(=N)N [1,1-dimethylguanidine]	–	–	substrate turnover rates (factor Xa [2]): the reaction has been slowed-down; rate of the reaction (activity of factor Xa) (factor Xa [3]): slows reaction of the factor Xa in a sample greater than 25mM
